{"source": "ChEMBL document CHEMBL1150102", "about": "“Chemical constituents of halophilic facultatively anaerobic bacteria, 1” (J Nat Prod, 1995)", "key": {"[1]": {"experiment": "Inhibition of tyrosin kinase pp60src"}, "P388": {"tested_on": "P388", "experiment": "Cytotoxicity against mouse P388 cells", "assay_type": "functional, cell-based"}}, "note": "Active and inactive are the calls of the source. No cut-off for these calls is given here.", "data": [{"compound": "O=C(O)Cc1ccccc1", "values": [{"measurement": "Activity", "setting": "[1]", "result": "inactive"}]}, {"compound": "CC(C)CC(=O)NCCc1ccc(OC(=O)CC(C)C)c([N+](=O)[O-])c1", "values": [{"measurement": "Activity", "setting": "[1]", "result": "inactive"}]}, {"compound": "CC(C)C(=O)NCCc1ccc(OC(=O)C(C)C)c([N+](=O)[O-])c1", "values": [{"measurement": "Activity", "setting": "[1]", "result": "inactive"}]}, {"compound": "O=C(O)c1c[nH]c2ccccc12", "values": [{"measurement": "Activity", "setting": "[1]", "result": "inactive"}]}, {"compound": "COC(=O)Cc1ccc(OC)c([N+](=O)[O-])c1", "values": [{"measurement": "Activity", "setting": "[1]", "result": "inactive"}]}, {"compound": "O=Cc1c[nH]c2ccccc12", "values": [{"measurement": "Activity", "setting": "[1]", "result": "inactive"}]}, {"compound": "CC(C)CC(=O)NCCc1ccc(O)c([N+](=O)[O-])c1", "values": [{"measurement": "Activity", "setting": "[1]", "result": "inactive"}]}, {"compound": "CC(C)C(=O)NCCc1ccc(O)c([N+](=O)[O-])c1", "values": [{"measurement": "Activity", "setting": "[1]", "result": "inactive"}, {"measurement": "IC50", "setting": "P388", "result": 3, "unit": "µg/mL"}]}, {"compound": "N#Cc1c[nH]c2ccccc12", "values": [{"measurement": "Activity", "setting": "[1]", "result": "inactive"}]}, {"compound": "O=C(O)Cc1ccc(O)c([N+](=O)[O-])c1", "values": [{"measurement": "Activity", "setting": "[1]", "result": "inactive"}]}]}
